Data: the supplement of paper PMC10307832

Legend:
Test in all cases: relative viability (nuclei count vs DMSO), 5 days (fraction); higher = more cells survive
FH535 + Trametinib = compound: CC1=C(C=CC(=C1)[N+](=O)[O-])NS(=O)(=O)C2=C(C=CC(=C2)Cl)Cl [FH535] + CC(=O)Nc1cccc(-n2c(=O)n(C3CC3)c(=O)c3c(Nc4ccc(I)cc4F)n(C)c(=O)c(C)c32)c1 [Trametinib] (partner 0.02 µM)
In short: (§1)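 Cells from lung cancer lines were seeded into 1536-well plates and, one day later, dosed by pin tool. Treatments were either a single drug or a fixed dose of an anchor drug with five library-drug doses (not always all listed) in √10 steps. After 5 days, nuclei were stained in a one-step fixation (final 0.05% Triton X-100, 1% formaldehyde, 1 ug/ml Hoechst) and counted on 4× images, and relative viability is the treated-to-vehicle nuclei ratio, as the median of duplicate plates.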

FH535 + Palbociclib = compound: CC1=C(C=CC(=C1)[N+](=O)[O-])NS(=O)(=O)C2=C(C=CC(=C2)Cl)Cl [FH535] + CC(=O)c1c(C)c2cnc(Nc3ccc(N4CCNCC4)cn3)nc2n(C2CCCC2)c1=O [Palbociclib] (partner 0.5 µM)
In short: as §1

FH535 + Lapatinib = compound: CC1=C(C=CC(=C1)[N+](=O)[O-])NS(=O)(=O)C2=C(C=CC(=C2)Cl)Cl [FH535] + CS(=O)(=O)CCNCc1ccc(-c2ccc3ncnc(Nc4ccc(OCc5cccc(F)c5)c(Cl)c4)c3c2)o1 [Lapatinib] (partner 2 µM)
In short: as §1

FH535 + Pictilisib = compound: CC1=C(C=CC(=C1)[N+](=O)[O-])NS(=O)(=O)C2=C(C=CC(=C2)Cl)Cl [FH535] + CS(=O)(=O)N1CCN(Cc2cc3nc(-c4cccc5[nH]ncc45)nc(N4CCOCC4)c3s2)CC1 [Pictilisib] (partner 1 µM)
In short: as §1

FH535 + Luminespib = compound: CC1=C(C=CC(=C1)[N+](=O)[O-])NS(=O)(=O)C2=C(C=CC(=C2)Cl)Cl [FH535] + CCNC(=O)c1noc(-c2cc(C(C)C)c(O)cc2O)c1-c1ccc(CN2CCOCC2)cc1 [Luminespib] (partner 0.01 µM)
In short: as §1

Cell Line | relative viability (FH535 + Trametinib; first compound 0.04 µM) | relative viability (FH535 + Trametinib; first compound 0.1265 µM) | relative viability (FH535 + Trametinib; first compound 0.4 µM) | relative viability (FH535 + Trametinib; first compound 1.265 µM) | relative viability (FH535 + Palbociclib; first compound 0.04 µM) | relative viability (FH535 + Palbociclib; first compound 0.1265 µM) | relative viability (FH535 + Palbociclib; first compound 0.4 µM) | relative viability (FH535 + Palbociclib; first compound 1.265 µM) | relative viability (FH535 + Lapatinib; first compound 0.04 µM) | relative viability (FH535 + Lapatinib; first compound 0.1265 µM) | relative viability (FH535 + Lapatinib; first compound 0.4 µM) | relative viability (FH535 + Lapatinib; first compound 1.265 µM) | relative viability (FH535 + Pictilisib; first compound 0.04 µM) | relative viability (FH535 + Pictilisib; first compound 0.1265 µM) | relative viability (FH535 + Pictilisib; first compound 0.4 µM) | relative viability (FH535 + Pictilisib; first compound 1.265 µM) | relative viability (FH535 + Luminespib; first compound 0.04 µM) | relative viability (FH535 + Luminespib; first compound 0.1265 µM) | relative viability (FH535 + Luminespib; first compound 0.4 µM) | relative viability (FH535 + Luminespib; first compound 1.265 µM)
HCC-78 | 0.694 | 0.713 | 0.602 | 0.665 | 0.487 | 0.512 | 0.458 | 0.425 | 0.694 | 0.321 | 0.701 | 0.697 | 0.193 | 0.223 | 0.187 | 0.204 |  |  |  | 
HCC-366 | 0.379 | 0.387 | 0.274 | 0.34 | 0.418 | 0.412 | 0.37 | 0.296 | 1 | 1.11 | 0.999 | 0.913 | 0.132 | 0.137 | 0.116 | 0.125 |  |  |  | 
HCC-827 | 0.504 | 0.545 | 0.538 | 0.42 | 0.501 | 0.479 | 0.489 | 0.332 | 0.202 | 0.195 | 0.213 | 0.163 | 0.894 | 1 | 0.824 | 0.728 | 0.676 | 0.794 | 0.682 | 0.336
HOP-62 | 0.374 | 0.373 | 0.391 | 0.355 | 0.481 | 0.462 | 0.456 | 0.393 | 0.886 | 0.87 | 1 | 1.01 | 0.505 | 0.606 | 0.64 | 0.676 | 0.695 | 0.98 | 0.831 | 0.707
IA-LM |  |  |  |  |  |  |  |  | 0.796 | 0.778 | 0.66 | 0.588 | 0.328 | 0.396 | 0.389 | 0.303 |  |  |  | 
LC-2-ad | 0.886 | 0.878 | 0.88 | 0.766 | 0.481 | 0.482 | 0.476 | 0.441 | 0.711 | 0.97 | 0.92 | 0.697 | 0.462 | 0.466 | 0.162 | 0.33 | 0.967 | 1.16 | 1.03 | 0.755
LCLC-97TM1 | 0.175 | 0.191 | 0.178 | 0.203 | 0.199 | 0.203 | 0.235 | 0.135 |  | 0.766 | 0.837 | 0.833 |  | 0.124 | 0.176 | 0.206 | 0.736 | 0.763 | 0.742 | 0.436
LCLC-103H | 0.711 | 0.665 | 0.707 | 0.5 | 0.509 | 0.426 | 0.493 | 0.416 |  |  |  |  | 0.598 | 0.608 | 0.561 | 0.535 | 0.936 | 1.02 | 0.862 | 0.616
LK-2 | 0.637 | 0.688 | 0.81 | 0.732 | 0.624 | 0.578 | 0.553 | 0.593 | 0.982 | 0.854 | 0.91 | 0.775 | 0.546 | 0.573 | 0.58 | 0.489 | 0.201 | 0.165 | 0.168 | 0.173
LOU-NH91 | 0.729 | 0.819 | 0.75 | 0.525 | 0.458 | 0.536 | 0.548 | 0.497 | 0.726 | 0.667 | 0.6 | 0.408 | 0.471 | 0.554 | 0.48 | 0.339 | 0.333 | 0.326 | 0.369 | 0.288
LU99A | 0.475 | 0.572 | 0.576 | 0.338 | 0.35 | 0.436 | 0.432 | 0.342 | 0.739 | 1.05 | 0.969 | 0.866 | 0.291 | 0.324 | 0.335 | 0.295 | 0.225 | 0.272 | 0.209 | 0.236
LXF-289 | 0.726 | 0.689 | 0.62 | 0.436 | 0.597 | 0.618 | 0.559 | 0.497 | 0.88 | 0.878 | 0.886 | 0.801 | 0.69 | 0.793 | 0.758 | 0.681 | 0.635 | 0.837 | 0.611 | 0.61
NCI-H23 | 0.345 | 0.448 | 0.418 | 0.306 | 0.453 | 0.552 | 0.477 | 0.471 |  | 1.17 | 0.936 | 0.913 |  | 0.41 | 0.483 | 0.508 |  | 0.207 | 0.199 | 0.225
NCI-H322M | 0.47 | 0.459 | 0.478 | 0.526 | 0.489 | 0.481 | 0.524 | 0.511 | 0.504 | 0.554 | 0.555 | 0.595 | 0.471 | 0.539 | 0.436 | 0.497 | 0.816 | 0.904 | 0.866 | 0.805
NCI-H441 | 0.454 | 0.334 | 0.428 | 0.394 | 0.212 | 0.197 | 0.176 | 0.174 |  |  |  |  | 0.434 | 0.469 | 0.443 | 0.423 | 0.319 | 0.291 | 0.356 | 0.352
NCI-H522 | 0.731 | 0.968 | 0.804 | 0.622 | 0.984 | 0.936 | 0.945 | 0.701 |  |  |  |  |  |  |  |  | 1.29 | 1.17 | 1.16 | 0.996
NCI-H596 | 0.814 | 0.864 | 0.854 | 0.748 |  |  |  |  | 1.06 | 1.03 | 0.985 | 0.94 | 0.347 | 0.385 | 0.39 | 0.344 | 1.07 | 1.11 | 0.85 | 0.992
SW 900 | 0.839 | 1.09 | 0.853 | 0.75 | 0.516 | 0.503 | 0.507 | 0.454 |  |  |  |  |  |  |  |  | 0.186 | 0.163 | 0.161 | 0.178
